Results from ChEMBL document CHEMBL3085716, “Hytramycins V and I, anti-Mycobacterium tuberculosis hexapeptides from a Streptomyces hygroscopicus strain” (J Nat Prod, 2013).
≈ marks a conversion by molar mass, not a printed value.

Columns and labels:
Streptococcus pneumoniae = test: Antibacterial activity against Streptococcus pneumoniae ATCC 49619 after 20 hrs; type: functional; conditions: ATCC 49619, 20 h
Enterococcus faecalis = test: Antibacterial activity against Enterococcus faecalis ATCC 29212 after 16 hrs; type: functional; conditions: ATCC 29212, 16 h
[1] = test system: Mycobacterium tuberculosis; test: Antimycobacterial activity against Mycobacterium tuberculosis H37Rv under normoxic condition after 7 days by MABA assay in presence of 10% fetal bovine serum; type: functional; conditions: 168 h
[2] = test system: Mycobacterium tuberculosis; test: Antimycobacterial activity against Mycobacterium tuberculosis H37Rv under normoxic condition after 7 days by MABA assay in presence of 4% bovine serum albumin; type: functional; conditions: 168 h
[3] = test system: Mycolicibacterium smegmatis; test: Antimycobacterial activity against Mycobacterium smegmatis ATCC 700084 under normoxic condition after 72 hrs by MABA assay; type: functional; conditions: ATCC 700084, 72 h
[4] = test system: Mycobacterium tuberculosis; test: Antimycobacterial activity against Mycobacterium tuberculosis clinical isolate X005319 under normoxic condition after 7 days by MABA assay; type: functional; conditions: clinical isolate X005319, 168 h
[5] = test system: Mycobacterium tuberculosis; test: Antimycobacterial activity against Mycobacterium tuberculosis clinical isolate X005282 under normoxic condition after 7 days by MABA assay; type: functional; conditions: clinical isolate X005282, 168 h
[6] = test system: Mycobacterium tuberculosis; test: Antimycobacterial activity against Mycobacterium tuberculosis clinical isolate X004439 under normoxic condition after 7 days by MABA assay; type: functional; conditions: clinical isolate X004439, 168 h
[7] = test system: Mycobacterium tuberculosis; test: Antimycobacterial activity against Mycobacterium tuberculosis clinical isolate X004244 under normoxic condition after 7 days by MABA assay; type: functional; conditions: clinical isolate X004244, 168 h
[8] = test system: Mycobacterium tuberculosis; test: Antimycobacterial activity against Mycobacterium tuberculosis clinical isolate X003899 under normoxic condition after 7 days by MABA assay; type: functional; conditions: clinical isolate X003899, 168 h
[9] = test system: Mycobacterium tuberculosis; test: Antimycobacterial activity against Mycobacterium tuberculosis clinical isolate X001354 under normoxic condition after 7 days by MABA assay; type: functional; conditions: clinical isolate X001354, 168 h
[10] = test system: Mycobacterium tuberculosis; test: Antimycobacterial activity against Mycobacterium tuberculosis H37Rv under normoxic condition after 7 days by MABA assay; type: functional; conditions: for MIC90: Mycobacterium tuberculosis, H37Rv, 168 h
Acinetobacter baumannii = test: Antibacterial activity against Acinetobacter baumannii ATCC BAA-747 after 16 hrs; type: functional; conditions: for MIC90: ATCC BAA-747, 16 h
Candida albicans = test: Antifungal activity against Candida albicans ATCC 10231 after 48 hrs; type: functional; conditions: ATCC 10231, 48 h
Pseudomonas aeruginosa = test: Antibacterial activity against Pseudomonas aeruginosa ATCC 27853 after 16 hrs; type: functional; conditions: for MIC90: ATCC 27853, 16 h
Vero = test: Cytotoxicity against african green monkey Vero cells; type: cell-based; conditions: Chlorocebus sabaeus
Staphylococcus aureus = test: Antibacterial activity against Staphylococcus aureus ATCC 29213 after 16 hrs; type: functional
Escherichia coli = test: Antibacterial activity against Escherichia coli ATCC 25922 after 16 hrs; type: functional

| Compound | MIC90 (Streptococcus pneumoniae) [µg/mL] | MIC90 (Enterococcus faecalis) [µg/mL] | MIC90 [1] [µg/mL] | MIC90 [2] [µg/mL] | MIC90 [4] [µg/mL] | MIC90 [5] [µg/mL] | MIC90 [6] [µg/mL] | MIC90 [7] [µg/mL] | MIC90 [8] [µg/mL] | MIC90 [9] [µg/mL] | MIC90 [10] [µg/mL] | further results |
| --- | --- | --- | --- | --- | --- | --- | --- | --- | --- | --- | --- | --- |
| CC[C@H]1OC(=O)[C@H](C)[C@@H](O[C@H]2C[C@@](C)(OC)[C@@H](O)[C@H](C)O2)[C@H](C)[C@@H](O[C@@H]2O[C@H](C)C[C@H](N(C)C)[C@H]2O)[C@](C)(O)C[C@@H](C)C(=O)[C@H](C)[C@@H](O)[C@]1(C)O [ERYTHROMYCIN] | 0.1 (≈ 0.136 µM) | 1.9 (≈ 2.59 µM) | – | – | – | – | – | – | – | – | – | – |
| NNC(=O)c1ccncc1 [ISONIAZID] | – | – | 0.04 | 0.1 | 0.9 (≈ 6.56 µM) | 0.1 (≈ 0.729 µM) | 0.1 (≈ 0.729 µM) | > 1.1 | 0.1 (≈ 0.729 µM) | 0.1 (≈ 0.729 µM) | 0.03 (≈ 0.219 µM) | MIC90 [3]: 12.7 µg/mL (≈ 92.6 µM) |
| NC[C@H]1O[C@H](O[C@H]2[C@H](O)[C@@H](O[C@H]3O[C@H](CO)[C@@H](O)[C@H](N)[C@H]3O)[C@H](N)C[C@@H]2N)[C@H](O)[C@@H](O)[C@@H]1O [KANAMYCIN] | – | – | – | – | – | – | – | – | – | – | – | MIC90 (Acinetobacter baumannii): 0.7 µg/mL (≈ 1.44 µM) |
| CC(=O)N1CCN(c2ccc(OCC3COC(Cn4ccnc4)(c4ccc(Cl)cc4Cl)O3)cc2)CC1 (stereo not drawn) [KETOCONAZOLE] | – | – | – | – | – | – | – | – | – | – | – | MIC90 (Candida albicans): < 0.004 µg/mL |
| Cc1ncc([N+](=O)[O-])n1CCO [METRONIDAZOLE] | – | – | > 87.6 | > 87.6 | > 87.6 | > 87.6 | > 87.6 | > 87.6 | > 87.6 | > 87.6 | > 87.6 | – |
| CN(C)c1ccc(O)c2c1C[C@H]1C[C@H]3[C@H](N(C)C)C(O)=C(C(N)=O)C(=O)[C@@]3(O)C(O)=C1C2=O [MINOCYCLINE] | – | – | – | – | – | – | – | – | – | – | – | MIC90 (Acinetobacter baumannii): 0.2 µg/mL (≈ 0.437 µM) |
| CC1COc2c(N3CCN(C)CC3)c(F)cc3c(=O)c(C(=O)O)cn1c23 (stereo not drawn) [OFLOXACIN] | 1.1 (≈ 3.04 µM) | 2.3 (≈ 6.36 µM) | – | – | – | – | – | – | – | – | – | MIC90 (Pseudomonas aeruginosa): 1.2 µg/mL (≈ 3.32 µM) |
| CO[C@H]1/C=C/O[C@@]2(C)Oc3c(C)c(O)c4c(O)c(c(/C=N/N5CCN(C)CC5)c(O)c4c3C2=O)NC(=O)/C(C)=C\C=C\[C@H](C)[C@H](O)[C@@H](C)[C@@H](O)[C@@H](C)[C@H](OC(C)=O)[C@@H]1C [RIFAMPIN] | < 0.01 | 0.2 (≈ 0.243 µM) | < 0.02 | 0.02 | 0.1 (≈ 0.122 µM) | 0.03 (≈ 0.0365 µM) | 0.02 (≈ 0.0243 µM) | 0.1 (≈ 0.122 µM) | 0.1 (≈ 0.122 µM) | 0.02 (≈ 0.0243 µM) | < 0.02 | MIC90 (Pseudomonas aeruginosa): 17.8 µg/mL (≈ 21.6 µM); MIC90 [3]: < 0.3 µg/mL; IC50 (Vero): 143 µg/mL (≈ 174 µM); MBC90 [10]: 0.1 µg/mL (≈ 0.122 µM) |
| CN[C@@H]1[C@H](O[C@H]2[C@H](O[C@H]3[C@H](O)[C@@H](O)[C@H](N=C(N)N)[C@@H](O)[C@@H]3N=C(N)N)O[C@@H](C)[C@]2(O)C=O)O[C@@H](CO)[C@H](O)[C@H]1O [STREPTOMYCIN] | – | – | 0.6 | 0.8 | 1 (≈ 1.72 µM) | 0.6 (≈ 1.03 µM) | 0.3 (≈ 0.516 µM) | 0.3 (≈ 0.516 µM) | 0.2 (≈ 0.344 µM) | 0.4 (≈ 0.688 µM) | 0.3 (≈ 0.516 µM) | MIC90 [3]: 0.1 µg/mL (≈ 0.172 µM) |
| CN[C@H](CC(C)C)C(=O)N[C@H]1C(=O)N[C@@H](CC(N)=O)C(=O)N[C@H]2C(=O)N[C@H]3C(=O)N[C@H](C(=O)N[C@H](C(=O)O)c4cc(O)cc(O)c4-c4cc3ccc4O)[C@H](O)c3ccc(c(Cl)c3)Oc3cc2cc(c3O[C@@H]2O[C@H](CO)[C@@H](O)[C@H](O)[C@H]2O[C@H]2C[C@](C)(N)[C@H](O)[C@H](C)O2)Oc2ccc(cc2Cl)[C@H]1O [VANCOMYCIN] | 0.1 (≈ 0.069 µM) | 2.3 (≈ 1.59 µM) | – | – | – | – | – | – | – | – | – | – |
| GENTAMICIN | – | – | – | – | – | – | – | – | – | – | – | MIC>90 (Pseudomonas aeruginosa): 0.5 µg/mL; MIC>90 (Staphylococcus aureus): 0.6 µg/mL; MIC>90 (Escherichia coli): 1.2 µg/mL; MIC>90 (Acinetobacter baumannii): 0.2 µg/mL |
